# From article PMC4414353, “Synthesis and evaluation of novel amide amino-β-lactam derivatives as cholesterol absorption inhibitors” (Bioorganic & medicinal chemistry, 2015)
# Values joined by “and” are separate entries in the source; they are usually repeats but may differ in a detail not shown here. Equal values may be shown once. Read-outs that look alike come from different tables or passages of the source.
# Columns and labels:
# [1] = MTT cell proliferation assay (cytotoxicity), MDCKIIwt; assay type: cell-based; details: dog, MDCKII wild-type cells, 72 h incubation, read-out: LC50, MDCKII
# Experimental: (§1) Cytotoxicity of ezetimibe 1 and of newly synthesized amides 5a–f was determined using MTT cell proliferation assay in Madine-Darby Canine Kidney II wild-type (MDCKIIwt), MDCKII cells stably expressing hNPC1L1 (hNPC1L1/MDCKII) and HepG2 cell lines (Table 1). hNPC1L1/MDCKII were used as a pharmacologically validated model for investigating NPC1L1-mediated cholesterol uptake.[21] LC50 values were determined and values higher than 100 μM were considered non-toxic.
# (§2) Madin-Darby Canine Kidney II wild type (MDCKIIwt), MDCKII cells stably expressing human NPC1L1 (hNPC1L1/MDCKII), and HepG2 cells were cultured in Dulbecco’s Modified Eagle Medium (DMEM) (Gibco,® Life Technologies, Carlsbad, USA) containing 10% fetal calf serum (FCS) (Sigma–Aldrich, Munich, Germany), 1% penicillin/streptomycin in a humidified 5% CO2 incubator at 37 °C. MDCKIIwt cells were stably transfected with human NPC1L1 using Lipofectamine LTX (Life Technologies, Carlsbad, USA) according to the manufacturer’s protocol. After 48 h, selection with 1000 μg/mL G418 (Sigma–Aldrich, Munich, Germany) was started. Selection lasted for two weeks, after which transfected cells were maintained in the medium containing 500 μg/mL G418.
# (§3) MDCKIIwt, hNPC1L1/MDCKII, and HepG2 cells were plated in 96-well microtiter plates at 2 × 10^4 cells/mL on day 0. On the next day, tested compounds were added to obtain five 10-fold consecutive dilutions in range from 10^−8 to 10^−4 mol/L, and incubated for further 72 h. Cytotoxicity of the compounds was determined by the MTT cell proliferation assay (Sigma–Aldrich, Munich, Germany).[22] The results are expressed as LC50 values. The absorbance (A) was measured on a microplate reader at 570 nm. Cytotoxicity of each compound was tested in quadruplicate in three independent experiments. Furthermore, toxicity of the compounds in combination with micelles was tested using the same method. MDCKIIwt and hNPC1L1/MDCKII were plated in 96-well microtiter plates (150 μL medium/well) at 2 × 10^5 cells/mL 24 h before the experiment. Micelles were prepared according to the modified method described by Field et al.[23] In brief, micellar components were mixed with DMEM supplemented with 10% FCS to obtain final concentrations of 0.25 mM oleic acid, 50 μM cholesterol, 10 μM compactin, 50 μM mevalonate, 5 mM Na-taurocholate (Sigma–Aldrich, Munich, Germany) and sonicated. Tested compounds (25, 50, 100, 150, 200 μM) were added to the prepared medium, vortexed and applied to the cells for 1 h. Cytotoxicity was determined using the MTT assay.
# in vitro = details: dog
# Experimental: as §1, §2, §3
# [2] = MTT cell proliferation assay (cytotoxicity), HepG2; assay type: cell-based; details: human, HepG2 cells, 72 h incubation, read-out: LC50, HepG2
# Experimental: The results are expressed as LC50 values. […] Cytotoxicity was determined using the MTT assay.
# hNPC1L1/MDCKII cells [3] = assay: In vitro [3H]cholesterol uptake; assay type: cell-based, Canine; details: for IC50: Canis lupus familiaris, MDCK-II, read-out: IC50, inhibition of cholesterol uptake; for maximum inhibition of cholesterol uptake: compared to untreated cells
# Experimental: Ezetimibe analogs 5a–f were tested for inhibition of cholesterol uptake in hNPC1L1/MDCKII cells (Fig. 3).
# The results are expressed as percentage of inhibition compared to untreated cells and represent mean ± SEM of three independent experiments. *p <0.05, **p <0.01, ***p <0.001 determined by one-way ANOVA followed by Dunnett’s test.
# In vitro cholesterol uptake was determined as described by Dražić et al.[19] In brief, hNPC1L1/MDCKII cells were plated in 24-well plates at 5 × 10^5 cells/mL medium (500 μL medium/well) in DMEM supplemented with 5% LPDS 24 h before the treatment. Cells were washed once with PBS and medium containing micelles, [^3H]cholesterol (0.18 μCi/mL medium) ([1,2-3H(N)] cholesterol, 1 mCi/mL, ARC Inc., St. Louis, USA) and tested compounds in concentrations of 0–200 μM was added. After 1 h, the medium was removed, cells were washed three times with ice-cold 0.2% free fatty acid-free BSA and lysed. Radioactivity in the lysate (100 μL) was measured by liquid scintillation counting. Protein content in lysates was determined with the DC Protein Assay (Bio-Rad, Hercules, USA). The results were expressed as percentage of inhibition compared to untreated cells in CPM/mg protein. Activity of each compound was tested in duplicate in three independent experiments.
# C57BL/6 mice = assay: In vivo acute cholesterol absorption; details: 20 mg/kg/day for 2 days, oral gavage, reduction in [3H]cholesterol radioactivity relative to vehicle, mean ± SEM
# Experimental: Finally, we tested the in vivo inhibition of cholesterol absorption of ezetimibe 1 and 4-F-phenyl representatives (5b,d,f) from each group of ezetimibe analogs. For in vivo testing, we used the compounds with lower IC50 values and higher inhibition of cholesterol uptake as determined in vitro. For that purpose, mice were treated with 20 mg/kg/day of each compound for two days, gavaged with [^3H]cholesterol and radioactivity was measured in the liver and three equal parts of the small intestine (duodenum, jejunum, ileum). The results are expressed as percent reduction in radioactivity relative to vehicle (Table 2). […] In the three parts of the small intestine (duodenum, jejunum, ileum), ezetimibe 1 lowered [^3H]cholesterol by 60%, 52%, and 44%, respectively.
# 26 weeks old male C57BL/6 mice (3–4 per group) were maintained in a temperature-controlled environment under a 12 h light/12 h dark cycle with free access to chow diet (Altromin Spezialfutter GmbH, Lage, Germany) and water. For two days, mice were treated with ezetimibe, tested compounds (20 mg/kg/day) or vehicle. For the treatment, compounds were dissolved in corn oil and administered to mice (100 μL) after 4 h fasting by oral gavage. On day 2, 90 min after compound administration, mice were gavaged with corn oil (200 μL) containing [^3H]cholesterol (2 μCi) ([1,2-3H(N)] cholesterol, 1 mCi/mL, ARC Inc., St. Louis, USA). Liver and small intestines were collected 4 h post-gavage and cholesterol uptake and absorption were determined as previously described.[24] Animal experiments were performed according to the standards set by the Austrian Federal Ministry of Science, Research, and Economy, Vienna, Austria.
# hNPC1L1/MDCKII cells [4] = system: hNPC1L1/MDCKII cells; set-up: method as in PMID 25305716; details: determined previously, cited from earlier work
# [5] = MDCKII cells stably expressing human NPC1L1 (hNPC1L1/MDCKII)
# [6] = hNPC1L1/MDCKII cells, 1 h, micelles with [3H]cholesterol
# [7] = listed as ezetimibe 1, 20 mg/kg/day
Compound,CC50 at 72 h [1],CC50 at 72 h (in vitro; [5]),CC50 at 72 h [2],IC50 (hNPC1L1/MDCKII cells [3]; [6]),maximum inhibition of cholesterol uptake (hNPC1L1/MDCKII cells [3]; hNPC1L1/MDCKII cells),"In vivo inhibition of cholesterol absorption, Duodenum (C57BL/6 mice; 20 mg/kg/day)","In vivo inhibition of cholesterol absorption, Ileum (C57BL/6 mice; 20 mg/kg/day)","In vivo inhibition of cholesterol absorption, Jejunum (C57BL/6 mice; 20 mg/kg/day)","In vivo inhibition of cholesterol absorption, Liver (C57BL/6 mice; 20 mg/kg/day)",concentration at which maximum inhibition of cholesterol uptake was reached (hNPC1L1/MDCKII cells [3]; hNPC1L1/MDCKII cells),"IC50 (hNPC1L1/MDCKII cells [4]; read-out: IC50, inhibition of cholesterol uptake)",maximum inhibition of cholesterol uptake (hNPC1L1/MDCKII cells [4]),"In vivo inhibition of cholesterol absorption, Duodenum (C57BL/6 mice; [7])","In vivo inhibition of cholesterol absorption, Ileum (C57BL/6 mice; [7])","In vivo inhibition of cholesterol absorption, Jejunum (C57BL/6 mice; [7])","In vivo inhibition of cholesterol absorption, Liver (C57BL/6 mice; [7])",CC50 at 72 h (in vitro),IC50 (hNPC1L1/MDCKII cells [3])
"O=C(Cc1ccccc1)N[C@H]1C(=O)N(c2ccc(F)cc2)[C@@H]1c1ccc(O)cc1 [Compound 5c, N-((2R,3R)-1-(4-Fluorophenyl)-2-(4-hydroxyphenyl)-4-oxoazetidin-3-yl)-2-phenylacetamide]",> 100 µM,> 100 µM,> 100 µM,88 µM,~ 40%,,,,,,,,,,,,,
"O=C(N[C@H]1C(=O)N(c2ccc(F)cc2)[C@@H]1c1ccc(O)cc1)c1ccccc1 [Compound 5e, N-((2R,3R)-1-(4-Fluorophenyl)-2-(4-hydroxyphenyl)-4-oxoazetidin-3-yl)benzamide]",91.2 µM,68.3 µM,67.6 µM,70 µM,,,,,,,,,,,,,,
"O=C(Cc1ccc(F)cc1)N[C@H]1C(=O)N(c2ccc(F)cc2)[C@@H]1c1ccc(O)cc1 [Compound 5d, 2-(4-Fluorophenyl)-N-((2R,3R)-1-(4-fluorophenyl)-2-(4-hydroxyphenyl)-4-oxoazetidin-3-yl)acetamide]",> 100 µM,> 100 µM,> 100 µM,46 µM,~ 40%,15% and 15 ± 12%,24% and 24 ± 13%,14% and 14 ± 20%,39% and 39 ± 11 %,,,,,,,,,
"O=C(/C=C/c1ccccc1)N[C@H]1C(=O)N(c2ccc(F)cc2)[C@@H]1c1ccc(O)cc1 [Compound 5a, (E)-N-((2R,3R)-1-(4-Fluorophenyl)-2-(4-hydroxyphenyl)-4-oxoazetidin-3-yl)cinnamamide]",66.5 µM,65.1 µM,63.3 µM,20 µM,~ 45%,,,,,60 µM,,,,,,,,
"O=C1[C@H](CC[C@H](O)c2ccc(F)cc2)[C@@H](c2ccc(O)cc2)N1c1ccc(F)cc1 [Compound 1, Ezetimibe, reference compound]",> 100 µM,62.3 µM,69.7 µM,,,60 ± 6 %,44 ± 11%,52 ± 3 %,53 ± 2 %,,24 µM,40%,60%,44%,52%,53%,,
"O=C(/C=C/c1ccc(F)cc1)N[C@H]1C(=O)N(c2ccc(F)cc2)[C@@H]1c1ccc(O)cc1 [Compound 5b, (E)-3-(4-Fluorophenyl)-N-((2R,3R)-1-(4-fluorophenyl)-2-(4-hydroxyphenyl)-4-oxoazetidin-3-yl)acrylamide]",64 µM,,57.5 µM,,~ 45%,27% and 27 ± 10%,37% and 37 ± 15%,35% and 35 ± 8%,49% and 49 ± 5 %,60 µM,,,,,,,63.3 µM,18 µM
"O=C(N[C@H]1C(=O)N(c2ccc(F)cc2)[C@@H]1c1ccc(O)cc1)c1ccc(F)cc1 [Compound 5f, 4-Fluoro-N-((2R,3R)-1-(4-fluorophenyl)-2-(4-hydroxyphenyl)-4-oxoazetidin-3-yl)benzamide]",78.6 µM,64.7 µM,71.9 µM,54 µM,,42% and 42 ± 2%,28% and 28 ± 7%,32% and 32 ± 6%,37% and 37 ± 8 %,,,,,,,,,
